Experimental findings from patent US20250223301A1, “KINASE INHIBITORS, PREPARATION METHODS AND USES THEREOF” (InventisBio Co., Ltd., priority 2022, published 2025) are described below.

SMILES strings stand for the structures.

The target in one experiment is DGKa (Homo sapiens (Human), UniProt P23743). Put plainly: biochemical.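 Note: biochemical DGK kinase assay, ADP-Glo luminescence from ADP made by phosphorylating 1,2-dioleoyl-sn-glycerol, 20 min compound preincubation then 40 min reaction at 25 °C, 1% DMSO control.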
The next experiment addresses DGKz (Homo sapiens (Human), UniProt Q13574). Put plainly: DGK ADP-Glo kinase assay (DGKz). It is filed as biochemical. The following applies: 5 nM DGKz, 15 uM ATP. As to the method: Luminescence was recorded using an Tecan SPARK microplate reader.
Another experiment deals with PBMC. Put plainly: Human PBMC IL-2 assay. It is filed as cell-based. The note with it: anti-CD3/CD28 stimulation overnight, IL-2 level. The gist of the method:
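Healthy-donor frozen PBMC were thawed, rested 4 h at 37 °C and plated at ~200,000 cells/well. Cells were preincubated 60 min at 37 °C with compound solution (10 uM to 0.6 nM, 8 points, 4-fold, as added), then stimulated overnight with anti-CD3/CD28. Supernatant IL-2 was quantified by immunoassay kit and plotted against log compound concentration.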

A further experiment relates to Jurkat cells. Put plainly: Jurkat IL-2 assay. It is filed as cell-based. The note with it: Homo sapiens, anti-CD3/CD28 stimulation overnight, IL-2 level. The gist of the method: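 Cells in RPMI-1640 with 10% FBS received compound solution (5 uM to 2.3 nM, 8 points, 3-fold dilution) for 60 minutes at 37° C. They were then stimulated overnight at 37° C. with anti-CD3/CD28 antibody. IL-2 in the supernatant was quantified by immunoassay kit and plotted against log compound concentration.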

Sequence of DGKa (P23743 whole entry): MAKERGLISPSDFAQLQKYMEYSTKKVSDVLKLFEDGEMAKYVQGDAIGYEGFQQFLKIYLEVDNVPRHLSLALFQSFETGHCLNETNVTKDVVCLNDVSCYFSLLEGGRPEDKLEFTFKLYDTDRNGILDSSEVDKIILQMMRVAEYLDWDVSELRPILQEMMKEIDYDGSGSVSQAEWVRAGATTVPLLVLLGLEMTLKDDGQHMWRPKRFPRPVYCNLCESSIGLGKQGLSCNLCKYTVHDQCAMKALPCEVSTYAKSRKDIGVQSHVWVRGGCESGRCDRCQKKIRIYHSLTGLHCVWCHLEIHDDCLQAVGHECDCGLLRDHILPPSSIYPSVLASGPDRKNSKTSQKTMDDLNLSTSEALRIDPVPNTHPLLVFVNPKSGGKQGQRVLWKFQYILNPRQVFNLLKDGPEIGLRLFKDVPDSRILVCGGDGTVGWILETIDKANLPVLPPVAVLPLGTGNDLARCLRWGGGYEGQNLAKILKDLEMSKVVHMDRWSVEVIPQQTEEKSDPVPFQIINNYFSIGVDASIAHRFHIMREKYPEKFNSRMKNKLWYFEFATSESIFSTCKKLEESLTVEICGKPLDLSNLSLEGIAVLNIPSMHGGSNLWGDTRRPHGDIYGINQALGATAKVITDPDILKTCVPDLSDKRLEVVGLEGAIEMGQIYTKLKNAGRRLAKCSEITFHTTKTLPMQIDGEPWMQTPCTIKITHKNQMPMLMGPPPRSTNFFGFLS
Sequence of DGKz (Q13574 whole entry): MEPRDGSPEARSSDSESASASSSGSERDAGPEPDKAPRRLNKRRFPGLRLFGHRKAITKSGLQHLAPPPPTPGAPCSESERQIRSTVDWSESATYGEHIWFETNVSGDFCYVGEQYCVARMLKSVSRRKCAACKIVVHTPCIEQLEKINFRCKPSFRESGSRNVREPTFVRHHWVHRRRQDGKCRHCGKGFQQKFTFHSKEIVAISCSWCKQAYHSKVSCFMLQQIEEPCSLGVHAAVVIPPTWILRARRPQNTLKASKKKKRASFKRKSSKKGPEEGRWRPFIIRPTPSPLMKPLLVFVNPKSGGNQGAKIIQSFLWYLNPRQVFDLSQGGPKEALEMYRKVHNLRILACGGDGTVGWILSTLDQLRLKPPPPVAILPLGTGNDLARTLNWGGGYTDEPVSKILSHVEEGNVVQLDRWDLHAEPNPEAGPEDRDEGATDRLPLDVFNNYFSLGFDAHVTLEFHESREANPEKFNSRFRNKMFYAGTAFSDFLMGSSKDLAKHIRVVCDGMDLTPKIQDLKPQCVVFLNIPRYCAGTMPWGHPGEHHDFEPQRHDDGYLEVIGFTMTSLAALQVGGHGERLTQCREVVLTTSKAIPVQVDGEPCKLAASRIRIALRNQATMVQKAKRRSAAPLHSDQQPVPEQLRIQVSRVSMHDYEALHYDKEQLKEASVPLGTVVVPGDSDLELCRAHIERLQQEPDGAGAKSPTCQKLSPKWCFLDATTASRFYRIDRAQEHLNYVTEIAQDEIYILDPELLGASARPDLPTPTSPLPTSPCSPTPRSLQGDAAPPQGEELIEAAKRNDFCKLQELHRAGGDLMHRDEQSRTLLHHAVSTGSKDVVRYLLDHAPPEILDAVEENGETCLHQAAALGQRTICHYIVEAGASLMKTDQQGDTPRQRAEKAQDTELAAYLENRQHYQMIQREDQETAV
Description for DGKa: The DGKa and DGKz kinase assays were performed using Promega ADP-Glo kit (Promega, Cat #V9102). One microliter test compound was added to a 384-well plate. Reactions were performed in a 5 uL volume by adding 2 uL mixture of DGK enzyme and ATP in assay buffer (50 mM MOPS pH 7.5, 100 mM NaCl, 10 mM MgCl2, 1 mM CaCl2, 0.0025% BSA, and 1 mM DTT). […] The enzyme solution was incubated with test compound at 25 ? for 20 min. […] The reaction was initiated by the addition of 2 uL of substrate solution (7 uM 1.2-dioleoyl-sn-glycerol, 5 mM octyl-b-D-glucopyranoside) in the 5 uL assay volume. The resulting mixture was incubated at 25° C. for 40 minutes. Next, 5 uL of ADP-Glo-reagent was added to the plate and incubated for 40 minutes. Then 10 uL of kinase detection reagent was added and incubated for 30 minutes. Luminescence was recorded using an Tecan SPARK microplate reader. 1% DMSO vehicle was used as control and no enzyme well was used as blank well.

In general, IC50 refers to the midpoint of a concentration-inhibition curve. For `CC[C@H]1C[C@]2(CCN1c1nc(=O)n(C)c3ccc(C#N)nc13)CC(c1ccc(OC(F)(F)F)cc1)=NO2` (single isomer, unassigned) [Compound 74], the IC50 against DGKa is 10 nM; against DGKz it was 1570 nM.

As to `CC[C@@H]1C[C@@]2(CCN1c1nc(=O)n(C)c3ccc(C#N)nc13)CC(c1ccc(OC(F)(F)F)cc1)=NO2` (single isomer, unassigned) [Compound 75], the 50% inhibitory concentration (IC50) amounted to 253 nM against DGKa and 660 nM against DGKz.

Turning to `CC[C@H]1C[C@@H](c2nc3cc(C)ccc3o2)CCN1c1nc(=O)n(C)c2cc(O[C@@H]3CCOC3)c(Cl)cc12` (single isomer, unassigned) [Compound 94], the IC50 was 140 nM at DGKa and 1300 nM against DGKz.

Turning to `CC[C@H]1C[C@H](c2nc3cc(C)ccc3o2)CCN1c1nc(=O)n(C)c2cc(OC3CCOC3)c(Cl)cc12` (single isomer, unassigned) [Compound 97], the IC50 worked out at 5 nM at DGKa and 6 nM at DGKz.

As for `CC[C@H]1CN([C@@H](CC)c2ccc(OC(F)(F)F)cc2)[C@H](CC)CN1c1nc2nncn2c2ccc(C#N)nc12` (single isomer, unassigned) [Compound 100], the IC50 at DGKa is 1 nM; on DGKz, 30 nM.

`CC[C@H]1CN([C@@H](C)c2ccc(SC(F)(F)F)cc2)[C@H](CC)CN1c1nc2nncn2c2ccc(C#N)nc12` (stereo in doubt) [Compound 51]: the IC50 on DGKa was determined as 58 nM; at DGKz it was 50 nM.

Regarding `CC[C@H]1CN([C@H](C)c2ccc(SC(F)(F)F)cc2)[C@H](CC)CN1c1nc2nncn2c2ccc(C#N)nc12` (stereo in doubt) [Compound 52], the IC50 came to 5 nM against DGKa and 499 nM against DGKz.

For the molecule `CC[C@H]1CN([C@H](CC)c2cccc(S(F)(F)(F)(F)F)c2)[C@H](CC)CN1c1nc(=O)n(C)c2ccc(C#N)nc12` (stereo in doubt) [Compound 56], the figures for the IC50 against DGKa and at DGKz were 415 nM and 131 nM, respectively.

As for `CC[C@@H]1CN(c2nc(=O)n(C)c3ccc(C#N)nc23)[C@@H](C)CN1[C@@H](CC)c1ccc(S(F)(F)(F)(F)F)cc1` (stereo in doubt) [Compound 60], the IC50 was determined as 83 nM against DGKa and 28 nM against DGKz.

With `CC[C@@H]1CN(c2nc(=O)n(C)c3ccc(C#N)nc23)[C@@H](C)CN1[C@H](CC)c1ccc(S(F)(F)(F)(F)F)cc1` (stereo in doubt) [Compound 61], the values for the half-maximal inhibitory concentration (IC50) at DGKa and on DGKz were 128 nM and 180 nM, respectively.

Regarding `CC[C@H]1CN([C@@H](C)c2ccc(S(F)(F)(F)(F)F)cc2)[C@H](CC)CN1c1nc(=O)n(C)c2ccc(C#N)nc12` (stereo in doubt) [Compound 62], the figures for the IC50 against DGKa and on DGKz were 35 nM and 132 nM, respectively.

`CC[C@H]1CN([C@H](C)c2ccc(S(F)(F)(F)(F)F)cc2)[C@H](CC)CN1c1nc(=O)n(C)c2ccc(C#N)nc12` (stereo in doubt) [Compound 63]: the IC50 on DGKa amounted to 16 nM; against DGKz it was 639 nM.

Take `CC[C@@H]1CN(c2nc3nncn3c3ccc(C#N)nc23)[C@@H](C)CN1[C@@H](CC)c1ccc(SC(F)(F)F)cc1` (stereo in doubt) [Compound 66]: the IC50 against DGKa was found to be 4 nM; against DGKz it was 53 nM.

For the molecule `CC[C@H]1CN([C@@H](CC)c2ccc(SC(F)(F)F)cc2)[C@H](CC)CN1c1nc2nncn2c2ccc(C#N)nc12` (stereo in doubt) [Compound 68], the IC50 against DGKa amounted to 5 nM; on DGKz it was 103 nM.

As for `CC[C@H]1CN([C@H](CC)c2ccc(SC(F)(F)F)cc2)[C@H](CC)CN1c1nc2nncn2c2ccc(C#N)nc12` (stereo in doubt) [Compound 69], the IC50 at DGKa was found to be 10 nM; at DGKz, 346 nM.

Consider `CC[C@H]1CN([C@H](c2ccc(SC(F)(F)F)cc2)c2nc(C3CC3)no2)[C@H](CC)CN1c1nc(=O)n(C)c2ccc(C#N)nc12` (stereo in doubt) [Compound 70], for which the values for the IC50 on DGKa and against DGKz were 3 nM and 53 nM, respectively.

Take `CC[C@@H]1CN(c2nc3nncn3c3ccc(C#N)nc23)[C@@H](C)CN1[C@H](CC)c1ccc(SC(F)(F)F)cc1` (stereo in doubt) [Compound 71]: the values for the concentration for half-maximal inhibition (IC50) at DGKa and against DGKz were 21 nM and 236 nM, respectively.

As for `CC[C@H]1CN([C@H](CC)c2ccc(S(F)(F)(F)(F)F)cc2)[C@H](CC)CN1c1nc(=O)n2c3c(cc(C#N)nc13)OCC2` (stereo in doubt) [Compound 79], the IC50 against DGKa was 111 nM; at DGKz, 333 nM.

For the molecule `CC[C@@H]1CN(c2nc3nncn3c3ccc(C#N)nc23)[C@@H](C)CN1[C@@H](CC)c1ccc(S(F)(F)(F)(F)F)cc1` (stereo in doubt) [Compound 80], the IC50 at DGKa turned out to be 12 nM; on DGKz, 27 nM.

Regarding `CC[C@@H]1CN(c2nc3nncn3c3ccc(C#N)nc23)[C@@H](C)CN1[C@@H](CC)c1ccc(C(F)(F)F)cc1` (stereo in doubt) [Compound 81], the 50% inhibitory concentration (IC50) on DGKa was determined as 6 nM; against DGKz, 16 nM.

As to `CC[C@@H]1CN(c2nc3nncn3c3ccc(C#N)nc23)[C@@H](C)CN1[C@H](CC)c1ccc(C(F)(F)F)cc1` (stereo in doubt) [Compound 82], the figures for the IC50 at DGKa and against DGKz were 2 nM and 454 nM, respectively.

Regarding `CC[C@H]1CN([C@@H](CC)c2ccc(S(F)(F)(F)(F)F)cc2)[C@H](CC)CN1c1nc(=O)n2c3c(cc(C#N)nc13)OCC2` (stereo in doubt) [Compound 83], the results for the IC50 against DGKa and against DGKz were 23 nM and 124 nM, respectively.

For the molecule `CC[C@H]1CN([C@@H](C)c2ccc(S(F)(F)(F)(F)F)cc2)[C@H](CC)CN1c1nc2nncn2c2ccc(C#N)nc12` (stereo in doubt) [Compound 88], the IC50 turned out to be 18 nM against DGKa and 38 nM against DGKz.

Turning to `CC[C@H]1CN([C@H](C)c2ccc(S(F)(F)(F)(F)F)cc2)[C@H](CC)CN1c1nc2nncn2c2ccc(C#N)nc12` (stereo in doubt) [Compound 89], the IC50 worked out at 10 nM at DGKa and 116 nM against DGKz.

`CC[C@@H]1CN(c2nc3nncn3c3ccc(C#N)nc23)[C@@H](C)CN1[C@H](CC)c1ccc(S(F)(F)(F)(F)F)cc1` (stereo in doubt) [Compound 90]: the values for the IC50 against DGKa and at DGKz were 10 nM and 404 nM, respectively.

As for `CC[C@H]1C[C@@H](c2nc3cc(C)ccc3o2)CCN1c1nc(=O)n(C)c2cc(O[C@H]3CCOC3)c(Cl)cc12` (stereo in doubt) [Compound 93], the IC50 is 12 nM against DGKa and 130 nM at DGKz.

As to `CC[C@@H]1C[C@@H](c2nc3cc(C)ccc3o2)CCN1c1nc(=O)n(C)c2cc(OC3CCOC3)c(Cl)cc12` (stereo in doubt) [Compound 96], the IC50 against DGKa came to 4 nM; on DGKz, 2820 nM.

In the case of `CC[C@H]1CN([C@H](CC)c2ccc(OC(F)(F)F)cc2)[C@H](CC)CN1c1nc2nncn2c2ccc(C#N)nc12` (stereo in doubt) [Compound 101], the IC50 on DGKa turned out to be 11 nM; against DGKz, 235 nM.

With `CC[C@H]1CN([C@@H](CC)c2cccc(C(F)(F)F)c2)[C@H](CC)CN1c1nc2nncn2c2ccc(C#N)nc12` (stereo in doubt) [Compound 105], the IC50 against DGKa came out at 4 nM; at DGKz, 29 nM.

In the case of `CC[C@H]1CN([C@H](CC)c2cccc(C(F)(F)F)c2)[C@H](CC)CN1c1nc2nncn2c2ccc(C#N)nc12` (stereo in doubt) [Compound 106], the results for the IC50 on DGKa and against DGKz were 24 nM and 555 nM, respectively.

As for `CC[C@H]1CN([C@@H](CC)c2ccc(C(F)(F)F)nc2)[C@H](CC)CN1c1nc2nncn2c2ccc(C#N)nc12` (stereo in doubt) [Compound 111], the results for the IC50 at DGKa and on DGKz were 7 nM and 18 nM, respectively.

Take `CC[C@H]1CN([C@H](CC)c2ccc(C(F)(F)F)nc2)[C@H](CC)CN1c1nc2nncn2c2ccc(C#N)nc12` (stereo in doubt) [Compound 112]: the values for the IC50 at DGKa and on DGKz were 11 nM and 183 nM, respectively.

One may read the EC50 as the concentration that produces a half-maximal response. A higher EC50 goes with weaker potency. Take `CC[C@@H]1CN2c3c(c(=O)n(C)c4ccc(C#N)nc34)OC[C@@H]2CN1[C@@H](COC)c1ccc(C(F)(F)F)cc1` [Compound 283]: the EC50 was determined as 36 nM in the experiment with PBMC and 40 nM in the experiment with Jurkat cells.

On to `CC[C@@H]1CN2c3c(c(=O)n(C)c4ccc(C#N)nc34)OC[C@@H]2CN1[C@@H](CC)c1ccc(C(C)(F)F)cc1` [Compound 289], for which the values for the EC50 in the experiment with PBMC and in the experiment with Jurkat cells were 7 nM and 16 nM, respectively.

Consider `Cn1c(=O)c2c(c3nc(C#N)ccc31)N1CC[C@@H](Oc3ccc(C(F)(F)F)cc3)C[C@H]1CO2` [Compound 325], for which the EC50 in the experiment on PBMC came out at 561 nM; with Jurkat cells it was 688 nM.

Consider `CC[C@@H]1CN2c3c(c(=O)n(C)c4ccc(C#N)nc34)OC[C@@H]2CN1[C@H](CC)c1ncc(C(F)(F)F)cn1` [Compound 330], for which the concentration giving a half-maximal response (EC50) in the experiment with PBMC was determined as 115 nM; in the experiment on Jurkat cells, 267 nM.

Turning to `CC[C@@H]1CN2c3c(c(=O)n(C)c4ccc(C#N)nc34)OC[C@@H]2CN1[C@@H](CC)c1ncc(C(F)(F)F)cn1` [Compound 331], the concentration for a half-maximal effect (EC50) in the experiment on PBMC is 16 nM; with Jurkat cells, 14 nM.

Turning to `CC[C@@H]1CN2c3c(c(=O)n(C)c4ccc(C#N)nc34)OC[C@@H]2CN1[C@@H](c1ccc(C(F)(F)F)cc1)C1CC1` [Compound 346], the EC50 is 138 nM in the experiment with PBMC and 91 nM in the experiment with Jurkat cells.

Turning to `CC[C@@H]1CN2c3c(c(=O)n(C)c4ccc(C#N)nc34)OC[C@@H]2CN1[C@H](c1ccc(C(F)(F)F)cc1)C1CC1` [Compound 347], the EC50 in the experiment with PBMC was found to be 13 nM; in the experiment with Jurkat cells it was 9 nM.
